Reference: publication PMC12320831, “Synthesis and Biological Evaluation of New Chalcogen Semicarbazone (S, Se) and Their Azole Derivatives against Chagas Disease” (Journal of Medicinal Chemistry, 2024)
Where a name gives a salt, the structure may show the parent alone. Read-outs that look alike come from different tables or passages of the source.

Tests used:
T. cruzi CAI/72 strain = assay: Antiparasitic activity in C2C12 cells infected with T. cruzi CAI/72 (image-based assay); type: cell-based; conditions: Trypanosoma cruzi; for EC50: mean of three experiments in triplicate (n = 9) ± SD
Method: Antiparasitic activity and cytotoxicity of compounds were determined as described before (da Silva et al., Boudreau et al.). Mouse myoblasts cell line C2C12 (ATCCCRL-1772), were maintained in high glucose (4.5 g/L glucose) Dulbecco’s modified Eagle’s medium (DMEM Gibco), supplemented with 1% penicillin–streptomycin 10,000 U/mL (Gibco) and 5% fetal bovine serum (FBS, Sigma-Aldrich) at 37 °C with 5% CO2. parasites (CAI/72 strain, DTU TcI) were maintained by weekly coinfection with C2C12 cells. For all activity assays, C2C12 cells were infected at a 10:1 parasite-to-cell ratio with culture-derived trypomastigotes, which were harvested from the supernatant of infected C2C12 cells. After adding compounds to 384-well black clear-bottom plates (Greiner cat. no. 781091), trypomastigotes (7000 parasites/well) and C2C12 cells (700 cells/well) were seeded in a total volume of 50 μL of DMEM per well in the 384-well plates. Compounds were first tested at 10 μM. […] Plates were imaged with the automated ImageXpress MicroXL microscope (Molecular Devices) and analyzed by MetaXpress software (Molecular Devices) using a custom module optimized for this assay. Infection levels (parasites per host cell) were normalized to the positive control (40 μM BNZ) and negative control (DMSO). Antiparasitic activity (EC50) ± standard deviation (SD) and host cell cytotoxicity (C2C12 viability) values were determined from the DRC using Prism software (GraphPad Software, La Jolla, CA). Every assay has three biological replicates, each in triplicates (n = 9 data points).

recombinant Cz (cruzain) = molecular target: T1, recombinant Cz (cruzain) (Trypanosoma cruzi, UniProt P25779); assay: biochemical; conditions: read-out: Cz inhibition (%), 10 µM
T1 construct: Cz was expressed and purified as described in da Silva et al; made in house
Method: The screening assay was performed using 1 nM of Cz diluted in 0.1 M sodium acetate pH 5.5, 1 mM dithiothreitol (DTT), and 0.01% Triton X-100. Cz was expressed and purified as described in da Silva et al. The reaction starts after 10 min incubating the enzyme with the compounds (10 μM), when adding 2.5 μM of the substrate Z-FR-AMC final concentration (Z-Phe-Arg-amidomethylcoumarin, Sigma-Aldrich, C9521) diluted in the same assay buffer (final volume of 30 μL). The experiment was performed for 10 min. […] The DRC was performed with at least nine different concentrations of the inhibitors, diluted by 2-fold serial dilution, ranging from […] to 10 μM.
All experiments were accomplished in a 384-well black microplate, using a Synergy HTX (Biotek) plate reader at 25 °C with absorption/emission wavelengths of 360/460 nm. All assays were performed in triplicate wells and DMSO was used as a vehicle control. Enzymatic activity was measured and normalized to DMSO controls, and the inhibitor E-64 (10 μM) was used as a positive control for all assays. All experiments were performed in triplicates, with at least two independent assays (n = 6 data points). IC50 values were determined through nonlinear regression. Obtained data were treated and analyzed using GraphPad Prism 9.0 (GraphPad Software, La Jolla, California).

[1] = Host cell cytotoxicity (C2C12 viability); type: cell-based, Mouse; conditions: mouse; for viability at 48 h, 10 µM: < 50% viability considered cytotoxic; for CC50 at 48 h: viability calculated at 10 μM
Method: Antiparasitic activity and cytotoxicity of compounds were determined as described before (da Silva et al., Boudreau et al.). Mouse myoblasts cell line C2C12 (ATCCCRL-1772), were maintained in high glucose (4.5 g/L glucose) Dulbecco’s modified Eagle’s medium (DMEM Gibco), supplemented with 1% penicillin–streptomycin 10,000 U/mL (Gibco) and 5% fetal bovine serum (FBS, Sigma-Aldrich) at 37 °C with 5% CO2. parasites (CAI/72 strain, DTU TcI) were maintained by weekly coinfection with C2C12 cells. For all activity assays, C2C12 cells were infected at a 10:1 parasite-to-cell ratio with culture-derived trypomastigotes, which were harvested from the supernatant of infected C2C12 cells. After adding compounds to 384-well black clear-bottom plates (Greiner cat. no. 781091), trypomastigotes (7000 parasites/well) and C2C12 cells (700 cells/well) were seeded in a total volume of 50 μL of DMEM per well in the 384-well plates. Compounds were first tested at 10 μM. […] After 48 h at 37 °C and 5% CO2, plates were fixed with 4% formaldehyde solution for at least 1 h, washed with 1× PBS, and stained with 5 μg/mL of 4′,6-diamidino-2-phenylindole (DAPI) for at least 1 h prior to reading. Plates were imaged with the automated ImageXpress MicroXL microscope (Molecular Devices) and analyzed by MetaXpress software (Molecular Devices) using a custom module optimized for this assay. Infection levels (parasites per host cell) were normalized to the positive control (40 μM BNZ) and negative control (DMSO). Antiparasitic activity (EC50) ± standard deviation (SD) and host cell cytotoxicity (C2C12 viability) values were determined from the DRC using Prism software (GraphPad Software, La Jolla, CA). Every assay has three biological replicates, each in triplicates (n = 9 data points).

[2] = 10 µM, C2C12 infected cells, read-out: Anti-Tc CAI/72 activity (%)
[3] = C2C12 myoblast cells infected with trypomastigotes
[4] = C2C12, read-out: Anti-Tc CAI/72 activity (%)

T1 sequence (P25779 123-337 limits assumed): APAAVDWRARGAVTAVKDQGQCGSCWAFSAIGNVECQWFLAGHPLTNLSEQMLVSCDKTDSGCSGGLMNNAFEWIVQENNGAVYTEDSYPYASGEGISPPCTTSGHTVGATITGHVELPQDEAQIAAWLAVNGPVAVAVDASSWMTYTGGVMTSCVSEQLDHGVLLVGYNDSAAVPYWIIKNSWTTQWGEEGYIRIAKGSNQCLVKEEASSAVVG

Compound: C/C(=N\Nc1nc(C)cs1)c1ccc(C)cc1 [Compound S2a, (E)-4-Methyl-2-(2-(1-(4-tolyl)ethylidene)hydrazineyl)thiazole Hydrochloride]
- inhibition at 10 µM (T. cruzi CAI/72 strain; [2]): 12.5%
- inhibition at 10 µM (recombinant Cz (cruzain)): 36.8%
- viability at 48 h, 10 µM [1, 3]: > 100%

Compound: C/C(=N\Nc1nc(C)c[se]1)c1ccc(F)c(F)c1 [Se2j, (E)-2-(2-(1-(3,4-Difluorophenyl)ethylidene)hydrazineyl)-4-methyl-1,3-selenazole Hydrochloride]
- inhibition at 10 µM (T. cruzi CAI/72 strain; [4]): 18.7%
- inhibition at 10 µM (recombinant Cz (cruzain)): 102%
- viability at 48 h, 10 µM [1]: 38.3%

Compound: C/C(=N\Nc1nc(C)c[se]1)c1ccc(C)cc1 [Se2a, (E)-4-Methyl-2-(2-(1-(4-tolyl)ethylidene)hydrazineyl)-1,3-selenazole Hydrochloride]
- inhibition at 10 µM (T. cruzi CAI/72 strain; [4]): 11.1%
- inhibition at 10 µM (recombinant Cz (cruzain)): 28.6%
- viability at 48 h, 10 µM [1]: 91.9%

Compound: C/C(=N\Nc1nc(C)cs1)c1ccc(Br)cc1 [Compound S2f, (E)-2-(2-(1-(4-Bromophenyl)ethylidene)hydrazineyl)-4-methylthiazole hydrochloride]
- inhibition at 10 µM (T. cruzi CAI/72 strain; [2]): 1.1%
- inhibition at 10 µM (recombinant Cz (cruzain)): 53%
- viability at 48 h, 10 µM [1, 3]: > 100%

Compound: C/C(Cc1cccc(Cl)c1)=N\NC(N)=S [Compound S1m, (E)-2-(1-(3-Chlorophenyl)propan-2-ylidene)hydrazine-1-carbothioamide]
- inhibition at 10 µM (T. cruzi CAI/72 strain; [2]): 69.4%
- EC50 (T. cruzi CAI/72 strain; intracellular amastigotes in C2C12 cells, 48 h, read-out: EC50 Tc CAI/72): 2920 ± 160 nM
- inhibition at 10 µM (recombinant Cz (cruzain)): 72.3%
- viability at 48 h, 10 µM [1, 3]: > 100%
- CC50 at 48 h [1, 3]: > 10000 nM

Compound: COc1ccc(C/C(C)=N/NC(N)=S)cc1 [Compound S1n, (E)-2-(1-(4-Methoxyphenyl)propan-2-ylidene)hydrazine-1-carbothioamide]
- inhibition at 10 µM (T. cruzi CAI/72 strain; [2]): 34.5%
- inhibition at 10 µM (recombinant Cz (cruzain)): 56.2%
- viability at 48 h, 10 µM [1, 3]: > 100%

Compound: COc1ccc(/C(C)=N/NC(N)=S)c(OC)c1 [Compound S1k, (E,Z)-2-(1-(2,4-Dimethoxyphenyl)ethylidene)hydrazine-1-carbothioamide]
- inhibition at 10 µM (T. cruzi CAI/72 strain; [2]): 0.7%
- inhibition at 10 µM (recombinant Cz (cruzain)): 39.3%
- viability at 48 h, 10 µM [1, 3]: > 100%

Compound: C/C(=N\Nc1nc(C)cs1)c1csc2ccccc12 [Compound S2o, (E)-2-(2-(1-(Benzo[b]thiophen-3-yl)ethylidene)hydrazineyl)-4-methylthiazole Hydrochloride]
- inhibition at 10 µM (T. cruzi CAI/72 strain; [2]): 45.7%
- inhibition at 10 µM (recombinant Cz (cruzain)): 27.9%
- viability at 48 h, 10 µM [1, 3]: > 100%

Compound: COc1ccc(/C(C)=N/NC(N)=S)cc1 [Compound S1b, (E)-2-(1-(4-Methoxyphenyl)ethylidene)hydrazine-1-carbothioamide]
- inhibition at 10 µM (T. cruzi CAI/72 strain; [2]): 23.2%
- inhibition at 10 µM (recombinant Cz (cruzain)): 87.1%
- viability at 48 h, 10 µM [1, 3]: > 100%

Compound: C/C(=N\NC(N)=S)c1ccc(Br)cc1 [Compound S1f, (E)-2-(1-(4-Bromophenyl)ethylidene)hydrazine-1-carbothioamide]
- inhibition at 10 µM (T. cruzi CAI/72 strain; [2]): 45.4%
- inhibition at 10 µM (recombinant Cz (cruzain)): 97.1%
- viability at 48 h, 10 µM [1, 3]: > 100%

Compound: C/C(=N\NC(N)=[Se])c1csc2ccccc12 [Se1o, (E)-2-(1-(Benzo[b]thiophen-3-yl)ethylidene)hydrazine-1-carboselenoamide]
- inhibition at 10 µM (T. cruzi CAI/72 strain; [4]): 4.32%
- inhibition at 10 µM (recombinant Cz (cruzain)): 93.7%
- viability at 48 h, 10 µM [1]: 31.4%

Compound: COc1ccc(/C(C)=N/Nc2nc(C)cs2)cc1 [Compound S2b, (E)-2-(2-(1-(4-Methoxyphenyl)ethylidene)hydrazineyl)-4-methylthiazole Hydrochloride]
- inhibition at 10 µM (T. cruzi CAI/72 strain; [2]): 23.5%
- inhibition at 10 µM (recombinant Cz (cruzain)): 37.5%
- viability at 48 h, 10 µM [1, 3]: > 100%

Compound: COc1cccc(/C(C)=N/N=C(/N)S)c1 [Compound S1g, (E)-2-(1-(3-Methoxyphenyl)ethylidene)hydrazine-1-carbothioamide]
- inhibition at 10 µM (T. cruzi CAI/72 strain; [2]): 22.3%
- inhibition at 10 µM (recombinant Cz (cruzain)): 95.3%
- viability at 48 h, 10 µM [1, 3]: > 100%

Compound: C/C(=N\NC(N)=S)c1ccc([N+](=O)[O-])cc1 [Compound S1c, (E)-2-(1-(4-Nitrophenyl)ethylidene)hydrazine-1-carbothioamide]
- inhibition at 10 µM (T. cruzi CAI/72 strain; [2]): 20.6%
- inhibition at 10 µM (recombinant Cz (cruzain)): 97.6%
- viability at 48 h, 10 µM [1, 3]: > 100%

Compound: C/C(=N\NC(N)=[Se])c1ccsc1 [Se1l, (E)-2-(1-(Thiophen-3-yl)ethylidene)hydrazine-1-carboselenoamide]
- inhibition at 10 µM (T. cruzi CAI/72 strain; [4]): 30.5%
- inhibition at 10 µM (recombinant Cz (cruzain)): 90.1%
- viability at 48 h, 10 µM [1]: 38.1%

Compound: COc1cccc(/C(C)=N/Nc2nc(C)c[se]2)c1 [Se2g, (E)-2-(2-(1-(3-Methoxyphenyl)ethylidene)hydrazineyl)-4-methyl-1,3-selenazole Hydrochloride]
- EC50 (T. cruzi CAI/72 strain; C2C12, 48 h, read-out: EC50 Tc CAI/72, intracellular amastigotes in C2C12 cells, 48 h): 2670 ± 1130 nM
- inhibition at 10 µM (T. cruzi CAI/72 strain; [4]): 55.1%
- inhibition at 10 µM (recombinant Cz (cruzain)): 62.9%
- viability at 48 h, 10 µM [1]: > 100%
- CC50 at 48 h [1]: > 10000 nM

Compound: COc1ccc(/C(C)=N/NC(N)=[Se])cc1 [Se1b, (E)-2-(1-(4-Methoxyphenyl)ethylidene)hydrazine-1-carboselenoamide]
- inhibition at 10 µM (T. cruzi CAI/72 strain; [4]): 30%
- inhibition at 10 µM (recombinant Cz (cruzain)): 98.9%
- viability at 48 h, 10 µM [1]: 40.9%

Compound: C/C(=N\NC(N)=S)c1ccc(C)cc1 [Compound S1a, (E)-2-(1-(4-Tolyl)ethylidene)hydrazine-1-carbothioamide]
- inhibition at 10 µM (T. cruzi CAI/72 strain; [2]): 42.3%
- inhibition at 10 µM (recombinant Cz (cruzain)): 74.8%
- viability at 48 h, 10 µM [1]: > 100%

Compound: C/C(=N\NC(N)=S)c1csc2ccccc12 [Compound S1o, (E)-2-(1-(Benzo[b]thiophen-3-yl)ethylidene)hydrazine-1-carbothioamide]
- inhibition at 10 µM (T. cruzi CAI/72 strain; [2]): 23.1%
- inhibition at 10 µM (recombinant Cz (cruzain)): 100%
- viability at 48 h, 10 µM [1, 3]: > 100%

Compound: C/C(=N\NC(N)=[Se])c1ccc(C)cc1 [Se1a, (E)-2-(1-(4-Tolyl)ethylidene)hydrazine-1-carboselenoamide]
- inhibition at 10 µM (T. cruzi CAI/72 strain; [2]): 21.6%
- inhibition at 10 µM (recombinant Cz (cruzain)): 98.2%
- viability at 48 h, 10 µM [1]: 34.1%

Compound: C/C(=N\Nc1nc(C)cs1)c1ccc(F)c(F)c1 [Compound S2j, (E)-2-(2-(1-(3,4-Difluorophenyl)ethylidene)hydrazineyl)-4-methylthiazole Hydrochloride]
- inhibition at 10 µM (T. cruzi CAI/72 strain; [2]): 28.3%
- inhibition at 10 µM (recombinant Cz (cruzain)): 79.4%
- viability at 48 h, 10 µM [1, 3]: > 100%

Compound: C/C(=N\Nc1nc(C)c[se]1)c1ccc(Br)cc1 [Se2f, (E)-2-(2-(1-(4-Bromophenyl)ethylidene)hydrazineyl)-4-methyl-1,3-selenazole Hydrochloride]
- inhibition at 10 µM (T. cruzi CAI/72 strain; [4]): 18.3%
- inhibition at 10 µM (recombinant Cz (cruzain)): 98.6%
- viability at 48 h, 10 µM [1]: 87.7%

Compound: COc1ccc(/C(C)=N/Nc2nc(C)cs2)c(OC)c1 [Compound S2k, (E)-2-(2-(1-(2,4-Dimethoxyphenyl)ethylidene)hydrazineyl)-4-methylthiazole Hydrochloride]
- inhibition at 10 µM (T. cruzi CAI/72 strain; [2]): 46%
- inhibition at 10 µM (recombinant Cz (cruzain)): 34.2%
- viability at 48 h, 10 µM [1, 3]: > 100%
